For one experiment, the target named is T1, Rat URAT1-N35S/Y365F (Rattus norvegicus, UniProt Q3ZAV1, N35S/Y365F).
T1 construct: expressed in transfected cells; host or cells: HEK-293T
Put plainly: Uric acid transport kinetics, rat URAT1-N35S/Y365F. In kind it is cell-based. As for the experimental part:
(§1) HEK-293T cells were maintained in DMEM/high glucose/L-glutamine/HEPES supplemented with 1 mM sodium pyruvate (Life Technologies) and 10% FBS (PAA Laboratories) at 37 °C in 5% CO2. To express URAT1, OAT4 or OAT1, plasmids were reverse transfected into HEK-293T cells. DNA (10 µg) was mixed with 30 µl of DreamFect Gold (Boca Scientific) in 2 ml OptiMem (Life Technologies). After 20 minutes, 18 ml of media containing 2 × 10^7 cells in suspension was added and mixed, and 200 µl per well were plated onto white clear-bottomed poly-D-lysine coated 96-well plates (BD Biosciences). The cells were assayed the following day.
(§2) URAT1 and OAT4 activity assays were performed in assay buffer consisting of 25 mM MES pH 5.5 (from a 1 M MES solution [Sigma] adjusted to pH 5.5 with sodium hydroxide), 125 mM sodium gluconate, 4.8 mM potassium gluconate, 1.2 mM monobasic potassium phosphate, 1.2 mM magnesium sulfate, 1.3 mM calcium gluconate and 5.6 mM glucose. URAT1 inhibitors were serially diluted into assay buffer and added to the cells for 5 minutes prior to addition of substrate. URAT1-expressing cells were incubated with 100 µM ^14C-uric acid for 10 minutes and OAT4-expressing cells were incubated with 20 µM carboxyfluorescein (Life Technologies, Inc.) for 5 minutes. […] Each treatment was measured in triplicate.

The next experiment has as its target T2, rat URAT1 (Rattus norvegicus, UniProt Q3ZAV1).
T2 construct: host or cells: HEK-293T
T2 sequence (Q3ZAV1 1-553): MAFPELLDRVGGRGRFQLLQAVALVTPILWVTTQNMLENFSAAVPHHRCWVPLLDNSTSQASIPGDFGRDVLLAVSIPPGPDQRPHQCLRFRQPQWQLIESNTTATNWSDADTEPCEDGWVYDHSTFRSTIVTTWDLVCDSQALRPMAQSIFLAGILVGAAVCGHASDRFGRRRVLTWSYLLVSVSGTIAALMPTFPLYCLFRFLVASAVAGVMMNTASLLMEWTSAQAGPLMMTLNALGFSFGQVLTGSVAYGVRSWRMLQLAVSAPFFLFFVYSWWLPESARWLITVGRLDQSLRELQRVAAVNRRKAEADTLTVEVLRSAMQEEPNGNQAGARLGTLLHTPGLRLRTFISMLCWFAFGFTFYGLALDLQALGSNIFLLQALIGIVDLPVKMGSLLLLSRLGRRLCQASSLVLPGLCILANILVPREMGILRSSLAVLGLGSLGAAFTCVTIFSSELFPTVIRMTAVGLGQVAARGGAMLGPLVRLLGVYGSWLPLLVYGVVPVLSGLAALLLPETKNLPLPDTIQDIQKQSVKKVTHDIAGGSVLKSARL
Details: method as in Tan et al., 2016. To be noted: cited from earlier work.

For experiment [1], the target named is T3, human URAT1 (Homo sapiens, UniProt Q96S37).
T3 sequence (Q96S37 1-553): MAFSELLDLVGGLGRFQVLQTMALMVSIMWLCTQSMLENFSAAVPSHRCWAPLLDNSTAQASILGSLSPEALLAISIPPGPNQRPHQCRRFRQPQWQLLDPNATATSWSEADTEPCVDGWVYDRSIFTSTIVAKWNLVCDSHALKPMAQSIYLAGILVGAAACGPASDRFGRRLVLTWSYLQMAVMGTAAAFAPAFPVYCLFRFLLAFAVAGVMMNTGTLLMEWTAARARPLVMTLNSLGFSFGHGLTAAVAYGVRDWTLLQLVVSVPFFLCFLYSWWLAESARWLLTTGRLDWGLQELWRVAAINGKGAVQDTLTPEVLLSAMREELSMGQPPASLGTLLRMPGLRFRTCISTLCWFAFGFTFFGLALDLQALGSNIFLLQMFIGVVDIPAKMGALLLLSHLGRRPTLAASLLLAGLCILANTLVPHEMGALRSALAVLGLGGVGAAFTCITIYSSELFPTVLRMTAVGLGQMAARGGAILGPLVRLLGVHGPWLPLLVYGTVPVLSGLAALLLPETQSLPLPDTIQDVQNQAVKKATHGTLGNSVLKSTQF
Put plainly: Uric acid transport kinetics, human URAT1. In kind it is cell-based. Set-up: host or cells: HEK-293T. To be noted: human URAT1 vs rat URAT1. As for the experimental part: as §1, §2

Experiment [2] has as its target T4, rat URAT1-Y365F (Rattus norvegicus, UniProt Q3ZAV1, Y365F).
T4 construct: expressed in transfected cells; host or cells: HEK-293T
T4 sequence (Q3ZAV1 1-553 Y365F): T2 sequence (Q3ZAV1 1-553) with Y365F
Set-up: method as in Tan et al., 2016. To be noted: ref Tan et al., 2016; cited from earlier work.

The target in experiment [3] is T3, human URAT1. Set-up: host or cells: HEK-293T; method as in Tan et al., 2016. The note with it: cited from earlier work.
In experiment [4] the target is T4, rat URAT1-Y365F. Put plainly: Uric acid transport kinetics, rat URAT1-Y365F. The class given is cell-based.
For a further experiment, the target named is T5, Rat URAT1-N35S (Rattus norvegicus, UniProt Q3ZAV1, N35S).
T5 construct: expressed in transfected cells; host or cells: HEK-293T
Put plainly: Uric acid transport kinetics, rat URAT1-N35S. In kind it is cell-based.

Experiment [5] addresses T3, human URAT1. Put plainly: URAT1 binding assay with 3H-verinurad, human URAT1 membranes. To be noted: for mode of inhibition of 3H-verinurad binding: human URAT1 membranes.
Description: Membranes were prepared from cells transfected on the previous day with URAT1 expression constructs. Cells (5–10 × 10^8) were harvested in 1 ml ice-cold binding buffer (25 mM HEPES pH 7.3, 125 mM sodium gluconate) containing complete, EDTA-free protease inhibitor cocktail (Sigma). Cells were lysed with 100 strokes in a 2 ml dounce homogenizer using a tight-fitting “B” stem. Lysates were transferred to 1.5 mL Eppendorf tubes and centrifuged at 250 rcf for 5 minutes at 2 °C, and supernatants were transferred to fresh tubes and centrifuged again at 18,000 rcf for 20 minutes at 2 °C. The pellets (membrane fractions) were resuspended in 1 ml of ice-cold binding buffer containing protease inhibitors and frozen at −80 °C. Protein was measured using the Bio-Rad protein assay dye reagent concentrate.
Samples were then rapidly filtered through 25 mm glass fiber/1.2 µM PES 96-well filter plates (Corning FiltrEX 3510), and washed once with 200 µl ice-cold binding buffer. The plates were then subjected to scintillation counting. All samples were assayed in triplicate.
GraphPad Prism software was used for non-linear regression and statistical analyses. […] For kinetic measurements (K m and B max values), the “one site – specific binding” equation was used, after subtracting transport or binding measurements from control transfected cells. Statistical significance was assessed using Student’s unpaired t-tests.
The target of experiment [6] is T3, human URAT1. Put plainly: URAT1 activity assay (14C-uric acid transport), human URAT1. Details: host or cells: HEK-293T. The note with it: human URAT1 wild type in HEK-293T; 100 µM 14C-uric acid, pH 5.5; read-out: IC50, inhibition of transport activity. In kind it is cell-based. As for the experimental part: as §1
(§3) URAT1 and OAT4 activity assays were performed in assay buffer consisting of 25 mM MES pH 5.5 (from a 1 M MES solution [Sigma] adjusted to pH 5.5 with sodium hydroxide), 125 mM sodium gluconate, 4.8 mM potassium gluconate, 1.2 mM monobasic potassium phosphate, 1.2 mM magnesium sulfate, 1.3 mM calcium gluconate and 5.6 mM glucose. URAT1 inhibitors were serially diluted into assay buffer and added to the cells for 5 minutes prior to addition of substrate. URAT1-expressing cells were incubated with 100 µM ^14C-uric acid for 10 minutes and OAT4-expressing cells were incubated with 20 µM carboxyfluorescein (Life Technologies, Inc.) for 5 minutes. Cells were then washed three times in 25 mM MES pH 5.5/125 mM sodium gluconate, and solubilized in Ultima Gold (Perkin Elmer) prior to liquid scintillation counting. Each treatment was measured in triplicate.

The next experiment deals with T6, human URAT1 h-F241Y (Homo sapiens, UniProt Q96S37, F241Y).
T6 construct: expressed in transfected cells; host or cells: HEK-293T
T6 sequence (Q96S37 1-553 F241Y): T3 sequence (Q96S37 1-553) with F241Y
Put plainly: URAT1 activity assay, h-F241Y. In kind it is cell-based.
From the text: (§4) Human URAT1 (GenBank BC053348.1, Homo sapiens SLC22A12), rat URAT1 (NCBI NM_001034943.1, Rattus norvegicus Slc22a12) and human OAT4 (NCBI NM_018484.2, Homo sapiens SLC22A11) genes were purchased from Origene Technologies, Inc. and subcloned into pCMV6/neo using NotI. Where indicated, controls transfections used pCMV6/neo. Mutants were produced by site-directed mutagenesis using the QuikChange Lightning Multi Site-Directed Mutagenesis Kit (Agilent Technologies). […] Mutagenic primer sequences are provided in ref. [15] and mutagenic primer sequences for previously unreported mutants shown in Supplementary Table 1. All constructs used in this study were untagged. Human OAT1 was purchased from Fisher Scientific (catalog # MHS1010–7508183 in pSPORT6, NCBI NM_153276.2, Homo sapiens SLC22A6).
as §1, §3

The next experiment addresses T7, human URAT1 h-F449Y (Homo sapiens, UniProt Q96S37, F449Y).
T7 construct: expressed in transfected cells; host or cells: HEK-293T
T7 sequence (Q96S37 1-553 F449Y): T3 sequence (Q96S37 1-553) with F449Y
Put plainly: URAT1 activity assay, h-F449Y. In kind it is cell-based.
From the text: as §4, §1, §3

The target of the next experiment is T8, human URAT1 h-R477K (Homo sapiens, UniProt Q96S37, R477K).
T8 construct: expressed in transfected cells; host or cells: HEK-293T
T8 sequence (Q96S37 1-553 R477K): T3 sequence (Q96S37 1-553) with R477K
Put plainly: URAT1 activity assay, h-R477K. The class given is cell-based.
From the text: as §4, §1, §3

[7] abbreviates: ref Tan et al., 2016, listed as urate.

Where a chain is given by its changes, count along the chain named. Like-named read-outs stand apart in the source and are kept apart here.

The source of these data is article PMC5429603, “Discovery and characterization of verinurad, a potent and specific inhibitor of URAT1 for the treatment of hyperuricemia and gout” (Scientific Reports, 2017).

T5 sequence (Q3ZAV1 whole entry N35S): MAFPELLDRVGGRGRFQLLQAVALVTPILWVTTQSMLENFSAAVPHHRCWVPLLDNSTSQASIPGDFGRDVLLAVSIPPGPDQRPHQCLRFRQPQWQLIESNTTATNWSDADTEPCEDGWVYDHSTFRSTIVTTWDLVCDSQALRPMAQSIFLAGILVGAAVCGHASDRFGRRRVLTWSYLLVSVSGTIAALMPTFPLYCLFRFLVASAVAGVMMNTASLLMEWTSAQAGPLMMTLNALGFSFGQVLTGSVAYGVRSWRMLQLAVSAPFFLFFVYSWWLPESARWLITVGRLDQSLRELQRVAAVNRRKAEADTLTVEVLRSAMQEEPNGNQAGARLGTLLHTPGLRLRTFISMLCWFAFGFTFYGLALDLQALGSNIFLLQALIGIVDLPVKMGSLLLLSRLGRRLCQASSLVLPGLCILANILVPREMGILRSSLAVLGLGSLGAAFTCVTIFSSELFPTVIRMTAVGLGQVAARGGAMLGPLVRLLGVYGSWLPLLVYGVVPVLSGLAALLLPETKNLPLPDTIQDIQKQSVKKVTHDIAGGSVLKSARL
T1 sequence (Q3ZAV1 whole entry N35S/Y365F): as the sequence (Q3ZAV1 whole entry N35S) above, with Y365F counted along it

`O=c1[nH]c(=O)c2[nH]c(=O)[nH]c2[nH]1` [uric acid]: the “K m (µM), uric acid transport affinity” value on Rat URAT1-N35S/Y365F (Rat URAT1-N35S/Y365F) is listed as 222 ± 16 µM; on rat URAT1 (setting [7]), 857 µM; at rat URAT1 (ref Tan et al., 2016), 857 ± 6 µM; at rat URAT1-Y365F [2] it was 560 ± 28 µM; on human URAT1 [3] (setting [7]) it was 122 µM; on human URAT1 [3] (ref Tan et al., 2016), 122 ± 3 µM. The “K m (µM), uric acid transport affinity” value at Rat URAT1-N35S (Rat URAT1-N35S) turned out to be 697 ± 93 µM. Besides, the “fold increase in urate affinity relative to rat URAT1” value at Rat URAT1-N35S/Y365F (rat URAT1-N35S/Y365F) was roughly 4 fold. Also, the “fold higher affinity for urate of human URAT1 relative to rat URAT1” value on human URAT1 [1] stood at 7 fold. The “fold increase in urate affinity over rat URAT1” value at rat URAT1-Y365F [4] was 1.5 fold. The “urate affinity phenotype relative to rat URAT1” value on Rat URAT1-N35S (rat URAT1-N35S) is given as “no phenotype”.
As for `CCc1oc2ccccc2c1C(=O)c1cc(Br)c(O)c(Br)c1` [benzbromarone, Benzbromarone], on human URAT1 [5], the “mode of inhibition of 3H-verinurad binding” value is “competitive mode of inhibition”.
Consider `O=C1C(CC[S+]([O-])c2ccccc2)C(=O)N(c2ccccc2)N1c1ccccc1` (centres unmarked) [sulfinpyrazone, reference compound], for which the half-inhibitory concentration (IC50) (in general, the concentration that gives 50% inhibition) on human URAT1 [6] worked out at 3.4 µM; on human URAT1 [5], 8.6 µM; on human URAT1 h-F241Y (h-F241Y binding site point mutant), 23 µM; at human URAT1 h-F449Y (h-F449Y binding site point mutant), 9.7 µM; on human URAT1 h-R477K (h-R477K binding site point mutant), 2 µM. The Ki (usually the equilibrium dissociation constant of an inhibitor or competing ligand from its target) at human URAT1 [5] came to 52 µM. Besides, the “mode of inhibition of 3H-verinurad binding” value on human URAT1 [5] is recorded as “competitive mode of inhibition”. For the same compound, the “fold reduced affinity compared to human URAT1” value at human URAT1 h-F241Y (h-F241Y) was 7 fold; on human URAT1 h-F449Y (h-F449Y) it was 3 fold. Also, on human URAT1 h-R477K (h-R477K), the “fold increased affinity compared to human URAT1” value turned out to be 2 fold.
On to `CCCN(CCC)S(=O)(=O)c1ccc(C(=O)O)cc1` [probenecid], for which the “mode of inhibition of 3H-verinurad binding” value on human URAT1 [5] is reported as “competitive mode of inhibition”.
